Reference: the supplement of paper PMC10307832

Tests used:
Test in all cases: relative viability (nuclei count vs DMSO), 5 days (fraction); higher = more cells survive
[1] = compound: CCn1c(-c2nonc2N)nc2cnc(Oc3cccc(NC(=O)c4ccc(OCCN5CCOCC5)cc4)c3)cc21 + Nc1ncn([C@H]2C[C@H](O)[C@@H](CO)O2)c(=O)n1 [Decitabine] (partner 2 µM)
Method in brief: (§1)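 Lung cancer cell lines were seeded in 1536-well plates and dosed by pin tool the next day, with either a single drug or a fixed anchor-drug dose combined with five library-drug doses (not always all listed) spaced in √10 steps. Five days later, one step fixed the cells and stained their nuclei (final 0.05% Triton X-100, 1% formaldehyde, 1 ug/ml Hoechst), and nuclei were counted on 4× images. Relative viability is the nuclei count in treated wells divided by the count in vehicle wells, and each value is the median of duplicate plates.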

[2] = compound: CCn1c(-c2nonc2N)nc2cnc(Oc3cccc(NC(=O)c4ccc(OCCN5CCOCC5)cc4)c3)cc21 + O=C(CCCCCCC(=O)Nc1ccccc1)NO [Vorinostat] (partner 1 µM)
Method in brief: as §1

[3] = compound: CCn1c(-c2nonc2N)nc2cnc(Oc3cccc(NC(=O)c4ccc(OCCN5CCOCC5)cc4)c3)cc21 + C[C@@H](Oc1cc(-c2cnn(C3CCNCC3)c2)cnc1N)c1c(Cl)ccc(F)c1Cl [Crizotinib] (partner 1 µM)
Method in brief: as §1

Mirin + Vorinostat = compound: N=C1NC(=O)/C(=C/c2ccc(O)cc2)S1 [Mirin] + O=C(CCCCCCC(=O)Nc1ccccc1)NO [Vorinostat] (partner 1 µM)
Method in brief: as §1

Cell Line	relative viability ([1]; first compound 0.04 µM)	relative viability ([1]; first compound 0.1265 µM)	relative viability ([1]; first compound 0.4 µM)	relative viability ([1]; first compound 1.265 µM)	relative viability ([1]; first compound 4 µM)	relative viability ([2]; first compound 0.04 µM)	relative viability ([2]; first compound 0.1265 µM)	relative viability ([2]; first compound 0.4 µM)	relative viability ([2]; first compound 1.265 µM)	relative viability ([2]; first compound 4 µM)	relative viability ([3]; first compound 0.04 µM)	relative viability ([3]; first compound 0.1265 µM)	relative viability ([3]; first compound 0.4 µM)	relative viability ([3]; first compound 1.265 µM)	relative viability ([3]; first compound 4 µM)	relative viability (Mirin + Vorinostat; first compound 0.25 µM)	relative viability (Mirin + Vorinostat; first compound 0.7906 µM)	relative viability (Mirin + Vorinostat; first compound 2.5 µM)	relative viability (Mirin + Vorinostat; first compound 7.906 µM)	relative viability (Mirin + Vorinostat; first compound 25 µM)
SW 1573	0.476	0.466	0.365	0.23	0.173	0.966	0.534	0.37	0.304	0.237	0.874	0.704	0.707	0.519	0.391	0.867	0.772	0.765	0.308	0.56
LOU-NH91	0.794	0.698	0.65	0.561	0.533	1.06	0.824	0.661	0.529	0.548	0.756	0.534	0.637	0.488	0.497	0.908	0.902	1	0.843	1.16
LXF-289	0.359	0.403	0.353	0.384	0.318	0.862	0.886	0.79	0.777	0.604	0.839	0.871	0.821	0.598	0.549	0.727	0.818	0.713	0.8	0.836
NCI-H1299	–	–	–	–	–	–	–	–	–	–	0.961	0.878	0.768	0.71	0.473	–	–	–	–	–
HARA	0.598	0.665	0.684	0.283	0.206	0.524	0.551	0.538	0.577	0.645	1.15	1.08	1.1	0.335	0.241	0.537	0.533	0.567	0.597	0.502
LU99A	1.03	0.994	0.929	1.02	0.844	0.583	0.376	0.3	0.427	0.384	0.581	0.64	0.528	0.636	0.424	0.44	0.44	0.474	0.457	0.33
201T	0.825	0.834	0.823	0.86	0.827	1.07	0.882	0.717	0.876	0.896	1	1.02	1.03	1.03	0.964	1.02	1.14	0.956	1.07	1.18
HCC-827	0.343	0.397	0.328	0.305	0.318	0.92	0.881	0.806	0.525	0.701	0.913	0.903	0.951	0.892	0.803	0.184	0.863	0.937	0.828	0.987
NCI-H1666	0.796	0.787	0.751	0.653	0.704	1.13	1.05	1.12	1.05	1.03	1.21	1.2	1.23	0.726	0.372	1.01	1.23	1.01	0.928	0.938
NCI-H1915	0.249	0.265	0.275	0.24	0.21	0.507	0.52	0.472	0.244	0.225	1.09	0.899	0.868	0.93	0.86	0.527	0.498	0.558	0.341	0.52
NCI-H2009	0.292	0.304	0.25	0.216	0.175	0.632	0.582	0.56	0.429	0.277	0.987	0.847	0.754	0.41	0.258	0.716	0.875	0.738	0.673	0.784
ChaGo-K-1	0.582	0.423	0.525	0.515	0.526	1	0.684	0.514	0.536	0.55	1.31	1.04	0.96	–	0.633	0.741	0.652	0.746	0.638	0.596
COR-L 105	0.669	0.512	0.596	0.432	0.377	0.941	0.785	0.762	0.419	0.412	0.663	0.571	0.371	0.273	0.264	0.822	1.01	0.983	0.758	0.655
NCI-H2170	0.473	0.494	0.494	0.474	0.431	0.797	0.8	0.763	0.538	0.484	1.03	1.21	1.15	1.17	1.26	0.621	0.828	0.906	0.665	0.859
A549	0.219	0.304	0.272	–	0.108	–	–	–	–	–	0.837	0.417	0.223	0.086	0.114	–	–	–	–	–
NCI-H1975	0.311	0.289	0.293	0.228	0.201	0.666	0.623	0.554	0.37	0.273	0.933	0.788	0.864	0.279	0.218	0.696	0.777	0.718	0.703	0.733
Calu-6	–	–	–	–	–	–	–	–	–	–	0.864	0.698	0.519	0.346	0.373	–	–	–	–	–
NCI-H1648	0.55	0.65	0.85	0.695	0.675	0.922	0.472	0.42	1.46	1	–	–	–	–	–	0.421	–	0.601	0.424	0.299
NCI-H322M	0.585	0.63	0.824	0.767	0.648	1.26	1.31	0.856	0.554	0.675	1.28	0.976	0.96	0.953	0.922	1	0.87	0.93	1.28	1.11
NCI-H2405	0.68	0.473	0.327	0.251	0.241	0.938	0.488	0.264	0.239	0.238	0.964	0.782	0.655	0.257	0.285	0.943	–	1.11	1.03	1.21

Cell Line	relative viability ([1]; first compound 0.04 µM)	relative viability ([1]; first compound 0.1265 µM)	relative viability ([1]; first compound 0.4 µM)	relative viability ([1]; first compound 1.265 µM)	relative viability ([1]; first compound 4 µM)	relative viability ([2]; first compound 0.04 µM)	relative viability ([2]; first compound 0.1265 µM)	relative viability ([2]; first compound 0.4 µM)	relative viability ([2]; first compound 1.265 µM)	relative viability ([2]; first compound 4 µM)	relative viability ([3]; first compound 0.04 µM)	relative viability ([3]; first compound 0.1265 µM)	relative viability ([3]; first compound 0.4 µM)	relative viability ([3]; first compound 1.265 µM)	relative viability ([3]; first compound 4 µM)	relative viability (Mirin + Vorinostat; first compound 0.25 µM)	relative viability (Mirin + Vorinostat; first compound 0.7906 µM)	relative viability (Mirin + Vorinostat; first compound 2.5 µM)	relative viability (Mirin + Vorinostat; first compound 7.906 µM)	relative viability (Mirin + Vorinostat; first compound 25 µM)
HCC-44	0.868	1.06	0.738	0.728	0.429	1.13	1.18	1.14	1.07	1.09	0.784	1.03	0.83	0.411	0.248	1.12	1.2	1.05	1.15	1.35
HCC-78	0.613	0.78	–	0.74	0.634	0.43	0.42	–	0.505	0.638	0.429	0.357	0.333	0.393	0.399	0.41	0.473	0.472	0.399	0.471
COR-L23	0.469	0.401	0.215	0.186	0.166	0.508	0.309	0.225	0.13	0.113	0.598	0.341	0.329	0.133	0.107	0.453	0.585	0.488	0.327	0.31
NCI-H1993	0.557	0.616	0.652	0.496	0.531	0.991	0.764	0.649	0.697	0.697	0.991	0.864	–	0.75	0.742	1.07	0.627	0.89	0.947	0.737
NCI-H3122	0.429	0.428	0.49	0.401	0.42	1.1	0.971	0.671	0.781	0.61	0.266	0.298	0.342	0.318	0.346	1.06	1.01	1.08	0.997	1.05
NCI-H2228	–	–	–	–	–	0.842	0.524	0.891	0.543	0.456	0.468	0.385	0.49	0.432	0.471	0.576	0.96	0.957	0.724	1
NCI-H1944	0.416	0.414	0.425	0.442	0.428	0.662	0.572	0.463	0.481	0.261	1.15	1.11	–	1.07	1.12	0.511	0.494	0.649	0.449	0.511
NCI-H2342	0.664	0.755	0.814	0.579	0.687	0.834	0.746	0.752	0.468	0.743	–	–	–	–	–	0.852	0.817	0.845	–	0.757
NCI-H358	0.219	0.273	0.19	0.198	0.161	0.814	0.736	0.715	0.715	0.511	0.561	0.661	0.522	0.467	0.281	0.698	0.729	0.698	0.737	0.453
NCI-H1734	0.574	0.504	0.515	0.459	0.393	0.937	0.838	0.586	0.412	0.399	0.671	0.669	0.581	0.464	0.285	0.797	0.688	0.783	0.693	0.735
NCI-H1792	0.45	0.637	0.461	0.433	0.372	–	–	–	–	–	1.08	0.99	–	0.592	0.841	–	–	–	–	–
NCI-H1563	–	–	–	–	–	–	–	–	–	–	0.768	0.863	0.816	0.789	0.668	–	–	–	–	–
NCI-H522	0.672	0.819	0.698	0.648	0.621	1.19	0.697	0.783	0.742	0.539	–	–	–	–	–	1.04	1.1	0.89	0.692	0.695
NCI-H1793	0.36	0.474	0.499	0.457	0.369	0.721	0.712	0.602	0.424	0.496	–	–	–	–	–	0.907	–	0.672	0.949	0.832
SW 900	0.412	0.453	0.42	0.442	0.456	0.651	0.602	0.76	0.61	0.621	–	–	–	–	–	0.608	0.482	0.423	0.583	0.401
CAL-12T	–	–	–	–	–	1.44	0.862	0.731	0.553	0.288	0.74	0.5	0.371	0.298	0.215	0.622	0.868	0.886	0.828	0.697
EBC-1	–	–	–	–	–	–	–	–	–	–	0.227	0.207	0.175	0.17	0.136	–	–	–	–	–
IA-LM	–	–	–	–	–	1.08	0.997	1.03	0.998	1.39	1.01	0.831	0.859	0.699	0.758	0.975	1.01	1.01	–	1.17
NCI-H1703	–	–	–	–	–	–	–	–	–	–	0.641	0.799	0.484	0.426	0.205	–	–	–	–	–
NCI-H1395	0.701	0.601	0.646	0.459	0.521	0.753	0.604	0.658	0.441	0.44	–	–	–	–	–	0.809	–	0.822	0.811	0.938
